From patent publication US20060251702A1, “Implantable materials and methods for inhibiting tissue adhesion formation” (Cook Biotech Incorporated, priority 2005, published 2006)
Values joined by “and” are separate entries in the source; they are usually repeats but may differ in a detail not shown here. Equal values may be shown once. Read-outs that look alike come from different tables or passages of the source.

Test system: post-surgical adhesions on the traumatized cecal surface
Type: in vivo
Settings: score of one rat, 21 days
Protocol: The samples were then removed from solution, frozen at −80° C. overnight, relyophilized, and sterilized with ethylene oxide.
Forty-nine 250-300 gram Sprague-Dawley rats were anesthetized with an IM dose of ketamine and xylazine and prepared for aseptic abdominal surgery. […] The adjacent wall of the peritoneal cavity was mildly abraded with the same nylon brush and the cecum was either placed back into the abdominal cavity, covered with biomaterial, which was anchored to the abdominal cavity by suturing it to mesenchymal fat, or injected with a solution and placed back into the abdominal cavity.
Following cecal abrasion, groups of rats received one of the following 8 treatments: • Treatment 1: (Control) No biomaterials were implanted following cecal injury. […] Care was taken to avoid perforating the bowel N=6 rats. • Treatment 3: (PPM) a piece of polypropylene mesh (Bard) was placed over the abraded surface and secured with non-absorbable nylon suture. […] N=6 rats. • Treatment 8: […] DMSO was delivered to the peritoneal cavity prior to closure. N=6 rats.
Following placement of the cecum back into the abdominal cavity, the abdominal wall was closed with 4-0 silk and the skin closed with surgical staples.

[1] = IP high dose: 2.0 mg nimesulide in 1.0 mL DMSO to the peritoneal cavity
[2] = IP low dose: 0.5 mg nimesulide in 1.0 mL DMSO to the peritoneal cavity

Question: With CS(=O)(=O)Nc1ccc([N+](=O)[O-])cc1Oc1ccccc1 [nimesulide] as the compound, how does the “Extent (of adhesions, score)” value [1] read?
Answer: 1 (1=adhesions on 25% of the traumatized cecal surface) (3×) and 0

Question: What about the “Tenacity (of adhesions, score)” value [1] of the same compound?
Answer: 2 (2×) and 1 and 0

Question: And the “Extent (of adhesions, score)” value [2]?
Answer: 2 (2=adhesions on 50% of the traumatized cecal surface)

Question: What about the “Tenacity (of adhesions, score)” value [2] of the same compound?
Answer: 2
